Source: patent US9637472B2, “Substituted 6,5-fused bicyclic heteroaryl compounds” (Epizyme, Inc., priority 2011, dated 2017)

Biological target: EZH2 (Homo sapiens (Human), UniProt Q15910)
Assay: PRC2 enzyme assay on peptide substrates
Format: biochemical
Conditions: PRC2 enzyme assays on peptide substrates; 4 nM enzyme, 30 min preincubation at 25° C.; read-out: EZH2 IC50

EZH2, sequence (Q15910 other isoform, or with tags, fused parts or gaps): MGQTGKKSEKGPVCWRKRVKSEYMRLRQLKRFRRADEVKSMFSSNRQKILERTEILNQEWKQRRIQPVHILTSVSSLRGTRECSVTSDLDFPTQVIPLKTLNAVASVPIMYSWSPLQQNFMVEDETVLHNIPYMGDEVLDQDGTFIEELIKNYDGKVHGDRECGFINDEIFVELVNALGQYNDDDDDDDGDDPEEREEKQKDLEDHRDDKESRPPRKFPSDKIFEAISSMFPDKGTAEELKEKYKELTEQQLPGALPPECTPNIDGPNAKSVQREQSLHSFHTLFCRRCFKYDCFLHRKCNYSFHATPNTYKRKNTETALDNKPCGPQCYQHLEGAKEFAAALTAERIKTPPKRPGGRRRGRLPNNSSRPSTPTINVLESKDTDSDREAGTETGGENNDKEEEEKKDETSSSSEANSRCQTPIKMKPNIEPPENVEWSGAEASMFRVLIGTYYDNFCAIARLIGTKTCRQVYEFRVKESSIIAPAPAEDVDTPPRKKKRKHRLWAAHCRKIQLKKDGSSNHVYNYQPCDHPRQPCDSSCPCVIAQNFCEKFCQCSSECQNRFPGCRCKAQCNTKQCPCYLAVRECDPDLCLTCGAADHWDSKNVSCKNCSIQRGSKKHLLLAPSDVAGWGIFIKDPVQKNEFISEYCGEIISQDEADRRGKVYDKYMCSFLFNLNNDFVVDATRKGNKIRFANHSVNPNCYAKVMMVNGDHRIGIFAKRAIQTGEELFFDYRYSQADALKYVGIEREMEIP
EZH2, sequence (O75530 whole entry partner): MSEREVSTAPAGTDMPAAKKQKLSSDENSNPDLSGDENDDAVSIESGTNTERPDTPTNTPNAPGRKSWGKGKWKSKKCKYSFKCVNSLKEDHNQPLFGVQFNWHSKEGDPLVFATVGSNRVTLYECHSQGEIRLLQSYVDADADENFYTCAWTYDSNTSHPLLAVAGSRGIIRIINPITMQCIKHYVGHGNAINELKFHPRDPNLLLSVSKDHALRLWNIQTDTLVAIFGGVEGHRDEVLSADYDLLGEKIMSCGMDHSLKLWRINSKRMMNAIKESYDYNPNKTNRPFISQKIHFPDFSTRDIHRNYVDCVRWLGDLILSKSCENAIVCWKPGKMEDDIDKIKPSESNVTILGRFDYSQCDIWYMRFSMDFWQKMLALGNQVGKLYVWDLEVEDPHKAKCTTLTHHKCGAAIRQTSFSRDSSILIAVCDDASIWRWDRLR
EZH2, sequence (Q15022 whole entry partner): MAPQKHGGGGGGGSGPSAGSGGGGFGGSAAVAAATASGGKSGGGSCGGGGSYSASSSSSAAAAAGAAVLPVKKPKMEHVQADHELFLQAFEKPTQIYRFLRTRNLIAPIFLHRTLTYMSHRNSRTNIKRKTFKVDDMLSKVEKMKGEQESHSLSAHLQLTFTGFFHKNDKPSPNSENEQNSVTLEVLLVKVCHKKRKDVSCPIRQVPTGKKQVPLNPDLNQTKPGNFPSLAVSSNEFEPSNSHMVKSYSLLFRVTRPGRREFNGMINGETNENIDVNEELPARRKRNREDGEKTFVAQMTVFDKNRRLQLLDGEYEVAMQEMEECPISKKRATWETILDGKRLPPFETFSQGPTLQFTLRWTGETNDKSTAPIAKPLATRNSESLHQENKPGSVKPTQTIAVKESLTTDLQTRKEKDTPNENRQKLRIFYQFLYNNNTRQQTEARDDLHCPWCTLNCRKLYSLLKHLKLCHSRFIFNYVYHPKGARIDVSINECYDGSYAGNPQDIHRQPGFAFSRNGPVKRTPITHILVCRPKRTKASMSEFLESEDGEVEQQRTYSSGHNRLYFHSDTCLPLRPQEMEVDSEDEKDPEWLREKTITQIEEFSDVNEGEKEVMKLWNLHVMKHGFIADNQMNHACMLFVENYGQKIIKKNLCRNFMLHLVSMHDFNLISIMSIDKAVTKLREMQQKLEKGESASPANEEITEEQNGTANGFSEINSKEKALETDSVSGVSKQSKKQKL
EZH2, sequence (Q09028 whole entry partner): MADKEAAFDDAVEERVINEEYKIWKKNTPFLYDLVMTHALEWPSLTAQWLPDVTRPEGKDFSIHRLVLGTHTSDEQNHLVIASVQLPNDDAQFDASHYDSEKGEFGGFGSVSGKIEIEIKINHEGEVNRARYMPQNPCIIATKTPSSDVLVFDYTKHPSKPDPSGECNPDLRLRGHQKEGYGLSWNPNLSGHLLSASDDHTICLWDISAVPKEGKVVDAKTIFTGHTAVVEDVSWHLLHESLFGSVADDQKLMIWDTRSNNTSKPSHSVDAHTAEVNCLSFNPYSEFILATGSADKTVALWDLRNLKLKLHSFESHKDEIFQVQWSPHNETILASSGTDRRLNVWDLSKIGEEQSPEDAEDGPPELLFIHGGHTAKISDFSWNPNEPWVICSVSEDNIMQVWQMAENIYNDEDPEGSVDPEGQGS

Compound	IC50 [nM]
Cc1cc(C)c(CNC(=O)c2cc(C3=CCN(C(=O)C4CCN(C)CC4)CC3)nc3c2cnn3C(C)C)c(=O)[nH]1 [Compound B-34, N-((4,6-dimethyl-2-oxo-1,2-dihydropyridin-3-yl)methyl)-1-isopropyl-6-(1-(1-methylpiperidine-4-carbonyl)-1,2,3,6-tetrahydropyridin-4-yl)-1H-pyrazolo[3,4-b]pyridine-4-carboxamide]	< 300
C=C(C)Cn1ncc2c(C(=O)NCc3c(C)cc(C)[nH]c3=O)cc(C3=CC(C)(C)NC(C)(C)C3)nc21 [Compound B-3, N-((4,6-dimethyl-2-oxo-1,2-dihydropyridin-3-yl)methyl)-1-(2-methylallyl)-6-(2,2,6,6-tetramethyl-1,2,3,6-tetrahydropyridin-4-yl)-1H-pyrazolo[3,4-b]pyridine-4-carboxamide]	1000 to 3000
Cc1cc(CO)c(CNC(=O)c2cc(-c3ccc(CN4CCOCC4)cc3)nc3c2cnn3C(C)C)c(=O)[nH]1 [Compound A-96]	3000 to 10000
Cc1cc(C)c(CNC(=O)c2cc(C3=CCN(CCS(C)(=O)=O)CC3)nc3c2cnn3C(C)C)c(=O)[nH]1 [Compound B-89]	1000 to 3000
Cc1cc(C)c(CNC(=O)c2cc(C3=CC(C)(C)NC(C)(C)C3)nc3c2cnn3CC2CC2)c(=O)[nH]1 [Compound B-130]	3000 to 10000
Cc1cc(C)c(CNC(=O)c2cc(-c3ccc(CN(C)CCN)cc3)nc3c2cnn3C(C)C)c(=O)[nH]1 [Compound A-33]	300 to 1000
Cc1cc(COCCN(C)C)c(CNC(=O)c2cc(Br)cc3c2cnn3C2CCCC2)c(=O)[nH]1 [Compound D-85]	3000 to 10000
Cc1[nH]c(=O)c(CNC(=O)c2cc(C3=CC(C)(C)NC(C)(C)C3)nc3c2cnn3C(C)C)c(C)c1C [Compound B-139]	3000 to 10000
Cc1cc(C)c(CNC(=O)c2cc(-c3cccnc3)cc3c2cnn3C2CCCC2)c(=O)[nH]1 [Compound C-21]	< 300
Cc1cc(C)c(CNC(=O)c2cc(C3=CC(C)(C)NC(C)(C)C3)cc3c2cnn3C2CCN(C(=O)C(C)(C)C)CC2)c(=O)[nH]1 [Compound D-25]	< 300
CNCCN1CCC(c2cc(C(=O)NCc3c(C)cc(C)[nH]c3=O)c3cnn(C4CCCC4)c3c2)CC1 [Compound D-51]	< 300
Cc1cc(C)c(CNC(=O)c2cc(N3CCC(N4CCOCC4)CC3)nc3c2cnn3C(C)C)c(=O)[nH]1 [Compound B-87]	1000 to 3000
Cc1cc(C)c(CNC(=O)c2cc(C3=CCOCC3)nc3c2cnn3C(C)C)c(=O)[nH]1 [Compound B-80]	300 to 1000
Cc1cc(C)c(CNC(=O)c2cc(N(C)CCN(C)C)nc3c2cnn3C(C)C)c(=O)[nH]1 [Compound B-135]	3000 to 10000
Cc1cc(C)c(CNC(=O)c2cc(N3CCC(O)C3)nc3c2cnn3C(C)C)c(=O)[nH]1 (stereo not shown) [Compound B-119]	1000 to 3000
Cc1cc(C)c(CNC(=O)c2cc(N3CCC(=O)CC3)nc3c2cnn3C(C)C)c(=O)[nH]1 [Compound B-95]	1000 to 3000
Cc1cc(C)c(CNC(=O)c2cc(C=O)cc3c2cnn3C2CCCC2)c(=O)[nH]1 [Compound D-43]	< 300
Cc1cc(C)c(CNC(=O)c2cc(C3=CCN(C(=O)CCN)CC3)nc3c2cnn3C(C)C)c(=O)[nH]1 [Compound B-49]	300 to 1000
Cc1cc(C)c(CNC(=O)c2cc(Br)cc3c2cnn3C2CCN(C(=O)OC(C)(C)C)CC2)c(=O)[nH]1 [Compound D-12, tert-butyl 4-(6-bromo-4-(((4,6-dimethyl-2-oxo-1,2-dihydropyridin-3-yl)methyl)carbamoyl)-1H-indazol-1-yl)piperidine-1-carboxylate]	< 300
Cc1cc(C)c(CNC(=O)c2cc(C3=CCN(C(=O)CN)CC3)cc3c2cnn3C2CCCC2)c(=O)[nH]1 [Compound D-47]	< 300
Cc1cc(C)c(CNC(=O)c2cc(Br)cc3c2cnn3C2CCN(C(=O)C3CCC3)CC2)c(=O)[nH]1 [Compound D-98]	300 to 1000
Cc1cc(C)c(CNC(=O)c2cc(Br)cc3c2cnn3C2CCN(C(=O)C3CCCC3)CC2)c(=O)[nH]1 [Compound D-26]	300 to 1000
Cc1cc[nH]c(=O)c1CNC(=O)c1cc(-c2cccc(CN(C)CCN(C)C)c2)nc2c1cnn2C(C)C [Compound A-70]	3000 to 10000
Cc1cc(C)c(CNC(=O)c2cc(-c3ccc(N4CCN(C)CC4)nc3)nc3c2cnn3-c2ccccc2)c(=O)[nH]1 [Compound A-109]	10000 to 50000
CCc1c(C)[nH]c(=O)c(CNC(=O)c2cc(C3=CC(C)(C)NC(C)(C)C3)nc3c2cnn3C(C)C)c1C [Compound B-122]	3000 to 10000

Compound	IC50 [nM]
Cc1cc(C)c(CNC(=O)c2cc(-c3ccc(CN)cc3)nc3c2cnn3C(C)C)c(=O)[nH]1 [Compound A-14, 6-(4-(aminomethyl)phenyl)-N-((4,6-dimethyl-2-oxo-1,2-dihydropyridin-3-yl)methyl)-1-isopropyl-1H-pyrazolo[3,4-b]pyridine-4-carboxamide]	< 300
COC(=O)/C=C/Cn1ncc2c(C(=O)NCc3c(C)cc(C)[nH]c3=O)cc(C3=CC(C)(C)NC(C)(C)C3)nc21 [Compound B-124]	3000 to 10000
Cc1cc(C)c(CNC(=O)c2cc(O)nc3c2cnn3C(C)C)c(=O)[nH]1 [Compound B-147]	10000 to 50000
Cc1cc(C)c(CNC(=O)c2cc(C3=CCN(S(C)(=O)=O)CC3)nc3c2cnn3C(C)C)c(=O)[nH]1 [Compound B-99]	1000 to 3000
Cc1cc(C)c(CNC(=O)c2cc(-c3ccc(C)c(S(N)(=O)=O)c3)cc3c2cnn3C2CCCC2)c(=O)[nH]1 [Compound C-16]	< 300
Cc1cc(C)c(CNC(=O)c2cc(C3CCN(S(C)(=O)=O)CC3)nc3c2cnn3C(C)C)c(=O)[nH]1 [Compound B-27, N-((4,6-dimethyl-2-oxo-1,2-dihydropyridin-3-yl)methyl)-1-isopropyl-6-(1-(methylsulfonyl)piperidin-4-yl)-1H-pyrazolo[3,4-b]pyridine-4-carboxamide]	300 to 1000
Cc1cc(C)c(CNC(=O)c2cc(-c3cnn(CCN4CCOCC4)c3)cc3c2cnn3C2CCN(C(=O)C(C)(C)C)CC2)c(=O)[nH]1 [Compound C-34]	< 300
Cc1cc(CN(C)C)c(CNC(=O)c2cccc3c2cnn3C2CCCC2)c(=O)[nH]1 [Compound D-81]	3000 to 10000
Cc1cc(C)c(CNC(=O)c2cc(Br)cc3c2cnn3C2CCN(C3CCN(C)CC3)CC2)c(=O)[nH]1 [Compound D-16, 6-bromo-N-((4,6-dimethyl-2-oxo-1,2-dihydropyridin-3-yl)methyl)-1-(1′-methyl-[1,4′-bipiperidin]-4-yl)-1H-indazole-4-carboxamide]	< 300
Cc1cc(C)c(CNC(=O)c2cc(-c3cccc(COCCN(C)C)c3)cc3c2cnn3C2CCCC2)c(=O)[nH]1 [Compound C-22]	< 300
COc1cc(C(=O)NCc2c(C)cc(C)[nH]c2=O)c2cnn(C(C)C)c2n1 [Compound B-118]	1000 to 3000
Cc1cc(C)c(CNC(=O)c2cc(C3CCN(CCS(C)(=O)=O)CC3)nc3c2cnn3C(C)C)c(=O)[nH]1 [Compound B-83]	300 to 1000
Cc1cc(C)c(CNC(=O)c2cc(C3=CC(C)(C)NC(C)(C)C3)nc3c2c(C)nn3C(C)C)c(=O)[nH]1 [Compound B-13, N-((4,6-dimethyl-2-oxo-1,2-dihydropyridin-3-yl)methyl)-1-isopropyl-3-methyl-6-(2,2,6,6-tetramethyl-1,2,3,6-tetrahydropyridin-4-yl)-1H-pyrazolo[3,4-b]pyridine-4-carboxamide]	300 to 1000
Cc1cc(C)c(CNC(=O)c2c(Cl)c(C3=CC(C)(C)NC(C)(C)C3)nc3c2cnn3C(C)C)c(=O)[nH]1 [Compound B-12, 5-chloro-N-((4,6-dimethyl-2-oxo-1,2-dihydropyridin-3-yl)methyl)-1-isopropyl-6-(2,2,6,6-tetramethyl-1,2,3,6-tetrahydropyridin-4-yl)-1H-pyrazolo[3,4-b]pyridine-4-carboxamide]	1000 to 3000
Cc1cc(C)c(CNC(=O)c2cc(C(=O)N(C)C)nc3c2cnn3C(C)C)c(=O)[nH]1 [Compound B-141]	3000 to 10000
Cc1cc(CN2CCOCC2)c(CNC(=O)c2cccc3c2cnn3C2CCCC2)c(=O)[nH]1 [Compound D-84]	3000 to 10000
Cc1cc(C)c(CNC(=O)c2cc(N3CCC(O)CC3)nc3c2cnn3C(C)C)c(=O)[nH]1 [Compound B-11, N-((4,6-dimethyl-2-oxo-1,2-dihydropyridin-3-yl)methyl)-6-(4-hydroxypiperidin-1-yl)-1-isopropyl-1H-pyrazolo[3,4-b]pyridine-4-carboxamide]	1000 to 3000
Cc1cc(C)c(CNC(=O)c2cc(-c3ccc(CN(C)CCN4CCCC4)cc3)nc3c2cnn3C(C)C)c(=O)[nH]1 [Compound A-21]	300 to 1000
Cc1cc(C)c(CNC(=O)c2cc(C(F)(F)F)cc3c2cnn3C2CCN(C(=O)C(C)(C)C)CC2)c(=O)[nH]1 [Compound D-23]	< 300
Cc1cc(C)c(CNC(=O)c2cc(-c3cccc(CNCCO)c3)cc3c2cnn3C2CCCC2)c(=O)[nH]1 [Compound C-9, 1-cyclopentyl-N-((4,6-dimethyl-2-oxo-1,2-dihydropyridin-3-yl)methyl)-6-(3-(((2-hydroxyethyl)amino)methyl)phenyl)-1H-indazole-4-carboxamide]	< 300
CNC(=O)c1cc(C(=O)NCc2c(C)cc(C)[nH]c2=O)c2cnn(C(C)C)c2n1 [Compound B-18, N4-((4,6-dimethyl-2-oxo-1,2-dihydropyridin-3-yl)methyl)-1-isopropyl-N6-methyl-1H-pyrazolo[3,4-b]pyridine-4,6-dicarboxamide]	1000 to 3000
COCCOCc1cc(C(=O)NCc2c(C)cc(C)[nH]c2=O)c2cnn(C3CCCC3)c2c1 [Compound D-72]	1000 to 3000
Cc1cc(C)c(CNC(=O)c2cc(C3=CC(C)(C)NC(C)(C)C3)nc3c2cnn3C2CCC2)c(=O)[nH]1 [Compound B-14, 1-cyclobutyl-N-((4,6-dimethyl-2-oxo-1,2-dihydropyridin-3-yl)methyl)-6-(2,2,6,6-tetramethyl-1,2,3,6-tetrahydropyridin-4-yl)-1H-pyrazolo[3,4-b]pyridine-4-carboxamide]	300 to 1000
Cc1cc(C)c(CNC(=O)c2cc(Br)nc3c2cnn3C(C)C)c(=O)[nH]1 [Compound B-88]	1000 to 3000
